Measurements from patent US4604234A, “Protein having cell growth stimulating action, composition thereof and method for producing the same” (priority 1983, dated 1986).
Like-named read-outs stand apart in the source and are kept apart here.

Legend:
[1] = tested on: human cutaneous fibroblasts; settings: cited from earlier work; for growth inhibition of incubated human cutaneous fibroblasts: listed in descending order of inhibition
mouse fibroblasts = settings: with protoplasmic vacuolation; cited from earlier work
BHK-21 cells [2] = experiment: Inhibitory effects of steroids on BHK-21 cells; type: cell-based, hamster; settings: for activity at 0.5 µg/mL / activity at 1 µg/mL / activity at 5 µg/mL / activity at 25 µg/mL / activity at 50 µg/mL: Mesocricetus auratus, read-out: % of control cell numbers
BHK-21 cells [3] = experiment: Effects of WHS on BHK-21 cells in the presence of steroids; type: cell-based, hamster; settings: steroid 50 μg/ml alone
[4] = BHK-21, 48 h, 0.5 μg/ml, 2 days
[5] = BHK-21, 48 h, 1.0 μg/ml, 2 days
[6] = BHK-21, 48 h, 5.0 μg/ml, 2 days
[7] = BHK-21, 48 h, 25.0 μg/ml, 2 days
[8] = BHK-21, 48 h, 50.0 μg/ml, 2 days
[9] = BHK-21, 96 h, 0.5 μg/ml, 4 days
[10] = BHK-21, 96 h, 1.0 μg/ml, 4 days
[11] = BHK-21, 96 h, 5.0 μg/ml, 4 days
[12] = BHK-21, 96 h, 25.0 μg/ml, 4 days
[13] = BHK-21, 96 h, 50.0 μg/ml, 4 days
[14] = BHK-21, 144 h, 0.5 μg/ml, 6 days
[15] = BHK-21, 144 h, 1.0 μg/ml, 6 days
[16] = BHK-21, 144 h, 5.0 μg/ml, 6 days
[17] = BHK-21, 144 h, 25.0 μg/ml, 6 days
[18] = BHK-21, 144 h, 50.0 μg/ml, 6 days

Structure (SMILES): CCC(=O)OCC(=O)[C@@]1(OC(=O)CC)[C@@H](C)C[C@H]2[C@@H]3CCC4=CC(=O)C=C[C@]4(C)[C@@]3(F)[C@@H](O)C[C@@]21C [betamethasonedipropionate]
- growth inhibition of incubated human cutaneous fibroblasts [1]: inhibited

Structure (SMILES): CCCCC(=O)O[C@]1(C(=O)CO)[C@@H](C)C[C@H]2[C@@H]3CCC4=CC(=O)C=C[C@]4(C)[C@@]3(F)[C@@H](O)C[C@@]21C [betamethasone-17-valerate]
- growth inhibition of incubated human cutaneous fibroblasts [1]: inhibited

Structure (SMILES): CCC(=O)O[C@]1(C(=O)CCl)[C@@H](C)C[C@H]2[C@@H]3CCC4=CC(=O)C=C[C@]4(C)[C@@]3(F)[C@@H](O)C[C@@]21C [clobetasol-17-propionate]
- denaturation of human fibroblastic nuclei and protoplasms ([1]; 25 μg/ml): caused human fibroblastic nuclei and protoplasms to denature
- growth inhibition of incubated human cutaneous fibroblasts [1]: inhibited

Structure (SMILES): C[C@]12CCC(=O)C=C1CC[C@@H]1[C@@H]2[C@@H](O)C[C@@]2(C)[C@H]1CC[C@]2(O)C(=O)CO [cortisol]
- growth of incubated mouse fibroblasts (mouse fibroblasts): inhibited growth

Structure (SMILES): C[C@]12CCC(=O)C=C1CC[C@@H]1[C@@H]2[C@@H](O)C[C@@]2(C)[C@H]1CC[C@]2(O)C(=O)CO [Hydrocortisone, hydrocortisone]
- cell numbers (BHK-21 cells [2]; 0.5 μg/ml, 2 days): 13.0 × 10^5 cells/dish
- cell numbers (BHK-21 cells [2]; 0.5 μg/ml, 4 days): 24.0 × 10^5 cells/dish
- cell numbers (BHK-21 cells [2]; 0.5 μg/ml, 6 days): 25.6 × 10^5 cells/dish
- cell numbers (BHK-21 cells [2]; 1.0 μg/ml, 2 days): 12.5 × 10^5 cells/dish
- cell numbers (BHK-21 cells [2]; 1.0 μg/ml, 4 days): 23.8 × 10^5 cells/dish
- cell numbers (BHK-21 cells [2]; 1.0 μg/ml, 6 days): 25.1 × 10^5 cells/dish
- cell numbers (BHK-21 cells [2]; 5.0 μg/ml, 2 days): 12.0 × 10^5 cells/dish
- cell numbers (BHK-21 cells [2]; 5.0 μg/ml, 4 days): 21.9 × 10^5 cells/dish
- cell numbers (BHK-21 cells [2]; 5.0 μg/ml, 6 days): 25.2 × 10^5 cells/dish
- cell numbers (BHK-21 cells [2]; 25.0 μg/ml, 2 days): 9.3 × 10^5 cells/dish
- cell numbers (BHK-21 cells [2]; 25.0 μg/ml, 4 days): 17.1 × 10^5 cells/dish
- cell numbers (BHK-21 cells [2]; 25.0 μg/ml, 6 days): 22.6 × 10^5 cells/dish
- cell numbers (BHK-21 cells [2]; 50.0 μg/ml, 2 days): 8.2 × 10^5 cells/dish
- cell numbers (BHK-21 cells [2]; 50.0 μg/ml, 4 days): 10.8 × 10^5 cells/dish
- cell numbers (BHK-21 cells [2]; 50.0 μg/ml, 6 days): 10.0 × 10^5 cells/dish
- activity at 0.5 µg/mL (BHK-21 cells [2]; [4]): 105%
- activity at 1 µg/mL (BHK-21 cells [2]; [5]): 101%
- activity at 5 µg/mL (BHK-21 cells [2]; [6]): 96.8%
- activity at 25 µg/mL (BHK-21 cells [2]; [7]): 75%
- activity at 50 µg/mL (BHK-21 cells [2]; [8]): 66.1%
- activity at 0.5 µg/mL (BHK-21 cells [2]; [9]): 92.7%
- activity at 1 µg/mL (BHK-21 cells [2]; [10]): 91.7%
- activity at 5 µg/mL (BHK-21 cells [2]; [11]): 84.6%
- activity at 25 µg/mL (BHK-21 cells [2]; [12]): 66%
- activity at 50 µg/mL (BHK-21 cells [2]; [13]): 41.7%
- activity at 0.5 µg/mL (BHK-21 cells [2]; [14]): 98.5%
- activity at 1 µg/mL (BHK-21 cells [2]; [15]): 96.5%
- activity at 5 µg/mL (BHK-21 cells [2]; [16]): 96.9%
- activity at 25 µg/mL (BHK-21 cells [2]; [17]): 86.9%
- activity at 50 µg/mL (BHK-21 cells [2]; [18]): 40%
- cell numbers (BHK-21 cells [3]; 2nd day): 8.2 × 10^5 cells/dish
- cell numbers (BHK-21 cells [3]; 4th day): 12.6 × 10^5 cells/dish
- growth inhibition of incubated human cutaneous fibroblasts [1]: inhibited

Structure (SMILES): C[C@@H]1C[C@H]2[C@@H]3CCC4=CC(=O)C=C[C@]4(C)[C@@]3(F)[C@@H](O)C[C@]2(C)[C@@]1(O)C(=O)CO [Dexamethasone, dexamethasone]
- cell numbers (BHK-21 cells [2]; 0.5 μg/ml, 2 days): 0.92 × 10^5 cells/dish
- cell numbers (BHK-21 cells [2]; 0.5 μg/ml, 4 days): 2.32 × 10^5 cells/dish
- cell numbers (BHK-21 cells [2]; 0.5 μg/ml, 6 days): 2.51 × 10^5 cells/dish
- cell numbers (BHK-21 cells [2]; 1.0 μg/ml, 2 days): 0.87 × 10^5 cells/dish
- cell numbers (BHK-21 cells [2]; 1.0 μg/ml, 4 days): 2.31 × 10^5 cells/dish
- cell numbers (BHK-21 cells [2]; 1.0 μg/ml, 6 days): 2.54 × 10^5 cells/dish
- cell numbers (BHK-21 cells [2]; 5.0 μg/ml, 2 days): 0.84 × 10^5 cells/dish
- cell numbers (BHK-21 cells [2]; 5.0 μg/ml, 4 days): 2.22 × 10^5 cells/dish
- cell numbers (BHK-21 cells [2]; 5.0 μg/ml, 6 days): 2.57 × 10^5 cells/dish
- cell numbers (BHK-21 cells [2]; 25.0 μg/ml, 2 days): 0.71 × 10^5 cells/dish
- cell numbers (BHK-21 cells [2]; 25.0 μg/ml, 4 days): 1.71 × 10^5 cells/dish
- cell numbers (BHK-21 cells [2]; 25.0 μg/ml, 6 days): 2.33 × 10^5 cells/dish
- cell numbers (BHK-21 cells [2]; 50.0 μg/ml, 2 days): 0.62 × 10^5 cells/dish
- cell numbers (BHK-21 cells [2]; 50.0 μg/ml, 4 days): 1.24 × 10^5 cells/dish
- cell numbers (BHK-21 cells [2]; 50.0 μg/ml, 6 days): 1.84 × 10^5 cells/dish
- activity at 0.5 µg/mL (BHK-21 cells [2]; [4]): 94.8%
- activity at 1 µg/mL (BHK-21 cells [2]; [5]): 89.7%
- activity at 5 µg/mL (BHK-21 cells [2]; [6]): 86.6%
- activity at 25 µg/mL (BHK-21 cells [2]; [7]): 73.2%
- activity at 50 µg/mL (BHK-21 cells [2]; [8]): 63.9%
- activity at 0.5 µg/mL (BHK-21 cells [2]; [9]): 87.2%
- activity at 1 µg/mL (BHK-21 cells [2]; [10]): 86.8%
- activity at 5 µg/mL (BHK-21 cells [2]; [11]): 83.5%
- activity at 25 µg/mL (BHK-21 cells [2]; [12]): 64.3%
- activity at 50 µg/mL (BHK-21 cells [2]; [13]): 46.6%
- activity at 0.5 µg/mL (BHK-21 cells [2]; [14]): 97.3%
- activity at 1 µg/mL (BHK-21 cells [2]; [15]): 98.4%
- activity at 5 µg/mL (BHK-21 cells [2]; [16]): 99.6%
- activity at 25 µg/mL (BHK-21 cells [2]; [17]): 90.3%
- activity at 50 µg/mL (BHK-21 cells [2]; [18]): 71.3%
- cell numbers (BHK-21 cells [3]; 2nd day): 0.87 × 10^5 cells/dish
- cell numbers (BHK-21 cells [3]; 4th day): 1.28 × 10^5 cells/dish

Structure (SMILES): C[C@]12C=CC(=O)C=C1CC[C@@H]1[C@@H]2[C@@H](O)C[C@@]2(C)[C@H]1CC[C@]2(O)C(=O)CO [Prednisolone, prednisolone]
- cell numbers (BHK-21 cells [2]; 0.5 μg/ml, 2 days): 1.20 × 10^5 cells/dish
- cell numbers (BHK-21 cells [2]; 0.5 μg/ml, 4 days): 2.43 × 10^5 cells/dish
- cell numbers (BHK-21 cells [2]; 0.5 μg/ml, 6 days): 2.51 × 10^5 cells/dish
- cell numbers (BHK-21 cells [2]; 1.0 μg/ml, 2 days): 1.20 × 10^5 cells/dish
- cell numbers (BHK-21 cells [2]; 1.0 μg/ml, 4 days): 2.45 × 10^5 cells/dish
- cell numbers (BHK-21 cells [2]; 1.0 μg/ml, 6 days): 2.50 × 10^5 cells/dish
- cell numbers (BHK-21 cells [2]; 5.0 μg/ml, 2 days): 1.09 × 10^5 cells/dish
- cell numbers (BHK-21 cells [2]; 5.0 μg/ml, 4 days): 2.33 × 10^5 cells/dish
- cell numbers (BHK-21 cells [2]; 5.0 μg/ml, 6 days): 2.48 × 10^5 cells/dish
- cell numbers (BHK-21 cells [2]; 25.0 μg/ml, 2 days): 0.85 × 10^5 cells/dish
- cell numbers (BHK-21 cells [2]; 25.0 μg/ml, 4 days): 1.49 × 10^5 cells/dish
- cell numbers (BHK-21 cells [2]; 25.0 μg/ml, 6 days): 1.91 × 10^5 cells/dish
- cell numbers (BHK-21 cells [2]; 50.0 μg/ml, 2 days): 0.73 × 10^5 cells/dish
- cell numbers (BHK-21 cells [2]; 50.0 μg/ml, 4 days): 1.01 × 10^5 cells/dish
- cell numbers (BHK-21 cells [2]; 50.0 μg/ml, 6 days): 0.98 × 10^5 cells/dish
- activity at 0.5 µg/mL (BHK-21 cells [2]; [4]): 91.6%
- activity at 1 µg/mL (BHK-21 cells [2]; [5]): 91.6%
- activity at 5 µg/mL (BHK-21 cells [2]; [6]): 83.2%
- activity at 25 µg/mL (BHK-21 cells [2]; [7]): 64.9%
- activity at 50 µg/mL (BHK-21 cells [2]; [8]): 55.7%
- activity at 0.5 µg/mL (BHK-21 cells [2]; [9]): 89.3%
- activity at 1 µg/mL (BHK-21 cells [2]; [10]): 90.1%
- activity at 5 µg/mL (BHK-21 cells [2]; [11]): 85.7%
- activity at 25 µg/mL (BHK-21 cells [2]; [12]): 54.8%
- activity at 50 µg/mL (BHK-21 cells [2]; [13]): 37.1%
- activity at 0.5 µg/mL (BHK-21 cells [2]; [14]): 94.7%
- activity at 1 µg/mL (BHK-21 cells [2]; [15]): 94.3%
- activity at 5 µg/mL (BHK-21 cells [2]; [16]): 93.6%
- activity at 25 µg/mL (BHK-21 cells [2]; [17]): 72.1%
- activity at 50 µg/mL (BHK-21 cells [2]; [18]): 37%
- cell numbers (BHK-21 cells [3]; 2nd day): 0.78 × 10^5 cells/dish
- cell numbers (BHK-21 cells [3]; 4th day): 0.94 × 10^5 cells/dish

Structure (SMILES): CCCC(=O)O[C@]1(C(=O)CO)CC[C@H]2[C@@H]3CCC4=CC(=O)CC[C@]4(C)[C@H]3[C@@H](O)C[C@@]21C [hydrocortisone-butylate]
- growth inhibition of incubated human cutaneous fibroblasts [1]: inhibited
